From patent publication EP1046401A2, “Fatty acid derivative labelled with a radioactive transition metal” (NIHON MEDI-PHYSICS Co., Ltd., priority 1999, dated 2000) come the findings set out here.

Data set [1] concerns liver slice. Put plainly: Determination of the metabolites by in vitro test (liver slice, reversed phase HPLC). It is filed as in vitro ADME, rat. Particulars: 2-bromooctanoic acid added as inhibitor for the β-oxidation, liver slice incubation. Here is the method: (§1) Under anesthetized, a rat was subjected to celiotomy and bleeded by perfusion via the portal vein with 20 mM of tris-HCl buffer solution (containing 100 mM of potassium chloride, 5 mM of magnesium chloride, 5 mM of potassium dihydrogen phosphate, pH 7.4) which is saturated with O2/CO2 (95/5) gas. Then, the liver was excised and pieces of liver slice having the thickness of 300 µm were prepared by using Stadie, Riggs type of slicer (manufactures by NATSUME SEISAKUSHO). After weighing, each pieces of liver slices were divided into two groups. […] The samples were analyzed by reversed phase HPLC under the same conditions employed in Determination of metabolites by in vivo test. Survival rate of the cells in the liver slice sample used in the test was determined by measuring the activity of lactic acid dehydrogenase (LDH) leaked into the culture medium. […]
In conducting the in vitro experiment for determining the metabolite more than 90% of the radioactivity in liver homogenate was extracted.
21.2 ± 3.0% of the whole radioactivity was eluted at the fraction retained at 17 minutes. […]

For data set [2], the system named is liver slice. As to the kind of experiment: Survival of cells in the liver slice by lactic acid dehydrogenase (LDH) leaked into the medium. The settings on record: inhibition group (2-bromooctanoic acid 100 µM), at the termination point of experiments; no significant difference from control group. Type of data set: cell-based, rat. On the procedure:
as §1, with “groups. One is inhibiting group which was preincubated in 20mM tris-HCl buffer solution at 37°C for 5 minutes, in the presence of 2-bromooctanoic acid (the final concentration: 100 µM) as β-oxidation inhibitor, and another one is control group which was preincubated in 20 mM tris-HCl buffer solution at 37°C for 5 minutes, without the inhibitor. Next, [^99mTc]MAMA-HA (3.7 MBq) was added, and incubation was carried out under bubbling O2/CO2 (95/5) gas at 37°C for 60 minutes with shaking 60 times per minute.” for “groups.”

Each structure is given as a SMILES string.

In the case of `CCCCCCC(Br)C(=O)O` (centres unmarked) [2-bromooctanoic acid], in the data set with liver slice [1], the “formation of [^99mTc]MAMA-BA from [^99mTc]MAMA-HA” value is reported as “inhibited completely”. In the data set with liver slice [2], the LDH activities is given as 3,285 ± 367 IU/L.
